# Publication PMC5218480 (PLoS ONE, 2017)
# System: MV-4-11 cells
# Experiment: Gene expression microarray analysis (Affymetrix PrimeView) and GSEA
# Type: cell-based, human
# Parameters: RFU PODN (11730768_x_at) / Fold change /veh PODN (11730768_x_at) / RFU LINC00158 (11744669_a_at) / Fold change /veh LINC00158 (11744669_a_at) / RFU DUSP10 (11751237_a_at) / Fold change /veh DUSP10 (11751237_a_at) / RFU ID3 (11757404_x_at) / Fold change /veh ID3 (11757404_x_at) / RFU PLEKHG5 (11737974_s_at) / Fold change /veh PLEKHG5 (11737974_s_at) / RFU LRRC4B (11730491_at) / Fold change /veh LRRC4B (11730491_at) / RFU GIMAP4 (11747438_a_at) / Fold change /veh GIMAP4 (11747438_a_at) / RFU KRT8 (11758183_x_at) / Fold change /veh KRT8 (11758183_x_at) / RFU CNN1 (11734310_a_at) / Fold change /veh CNN1 (11734310_a_at) / RFU VPS37D (11726825_at) / Fold change /veh VPS37D (11726825_at) / RFU C10orf10 (11716522_x_at) / Fold change /veh C10orf10 (11716522_x_at) / RFU KIR2DL2 /// KIR2DL4 /// KIR2DL5A /// KIR2DL5B /// KIR2DS1 /// KIR2DS2 /// KIR2DS3 /// KIR2DS4 /// KIR3DL3 /// KIR3DL3 /// KIR3DS1 (11738374_at) / Fold change /veh KIR2DL2 /// KIR2DL4 /// KIR2DL5A /// KIR2DL5B /// KIR2DS1 /// KIR2DS2 /// KIR2DS3 /// KIR2DS4 /// KIR3DL3 /// KIR3DL3 /// KIR3DS1 (11738374_at) / RFU C1QL1 (11718748_at) / Fold change /veh C1QL1 (11718748_at) / RFU TMPRSS4 (11747572_a_at) / Fold change /veh TMPRSS4 (11747572_a_at) / RFU HAMP (11756126_x_at) / Fold change /veh HAMP (11756126_x_at) / RFU RNFT2 (11725882_a_at) / Fold change /veh RNFT2 (11725882_a_at) / RFU NR4A2 (11747474_a_at) / Fold change /veh NR4A2 (11747474_a_at) / RFU ABCC12 (11746883_a_at) / Fold change /veh ABCC12 (11746883_a_at) / RFU TMEM136 (11760407_x_at) / Fold change /veh TMEM136 (11760407_x_at) / RFU CLDN22 /// WWC2 (11732394_at) / Fold change /veh CLDN22 /// WWC2 (11732394_at) / RFU HLA-DPB1 (11760878_x_at) / Fold change /veh HLA-DPB1 (11760878_x_at) / RFU SPINT1 (11716480_a_at) / Fold change /veh SPINT1 (11716480_a_at) / RFU GAP43 (11754022_s_at) / Fold change /veh GAP43 (11754022_s_at) / RFU A4GNT (11735810_at) / Fold change /veh A4GNT (11735810_at) / RFU PRB3 (11715151_x_at) / Fold change /veh PRB3 (11715151_x_at) / RFU TUBB4B (11761932_at) / Fold change /veh TUBB4B (11761932_at) / RFU CAPN14 (11732068_a_at) / Fold change /veh CAPN14 (11732068_a_at) / RFU TMCC2 (11721928_a_at) / Fold change /veh TMCC2 (11721928_a_at) / RFU IRGQ (11745062_a_at) / Fold change /veh IRGQ (11745062_a_at) / RFU FAM174B (11720279_a_at) / Fold change /veh FAM174B (11720279_a_at) / RFU TMPRSS4 (11748680_a_at) / Fold change /veh TMPRSS4 (11748680_a_at) / RFU FAM212B (11763350_a_at) / Fold change /veh FAM212B (11763350_a_at) / RFU PLEKHG5 (11743358_a_at) / Fold change /veh PLEKHG5 (11743358_a_at) / RFU ZSCAN30 (11745921_a_at) / Fold change /veh ZSCAN30 (11745921_a_at) / RFU CMKLR1 (11741424_a_at) / Fold change /veh CMKLR1 (11741424_a_at) / RFU LOC101060620 /// MAPK8IP1 (11723275_at) / Fold change /veh LOC101060620 /// MAPK8IP1 (11723275_at) / RFU SPTSSB (11747773_x_at) / Fold change /veh SPTSSB (11747773_x_at) / RFU PRSS12 (11739890_at) / Fold change /veh PRSS12 (11739890_at) / RFU BIN1 (11741810_x_at) / Fold change /veh BIN1 (11741810_x_at) / RFU WNT11 (11732464_a_at) / Fold change /veh WNT11 (11732464_a_at) / RFU C10orf10 (11716521_a_at) / Fold change /veh C10orf10 (11716521_a_at) / RFU C5orf56 (11738089_at) / Fold change /veh C5orf56 (11738089_at) / RFU CYB561 (11721691_x_at) / Fold change /veh CYB561 (11721691_x_at) / RFU ANKRD19P (11752326_a_at) / Fold change /veh ANKRD19P (11752326_a_at) / RFU OR2T12 /// OR2T33 /// OR2T8 (11738714_s_at) / Fold change /veh OR2T12 /// OR2T33 /// OR2T8 (11738714_s_at) / RFU VCAN (11748164_a_at) / Fold change /veh VCAN (11748164_a_at) / RFU JSRP1 (11732532_at) / Fold change /veh JSRP1 (11732532_at) / RFU KRTAP10-11 (11738290_x_at) / Fold change /veh KRTAP10-11 (11738290_x_at) / RFU MYO3A (11730013_a_at) / Fold change /veh MYO3A (11730013_a_at) / RFU EBF3 (11725865_a_at) / Fold change /veh EBF3 (11725865_a_at) / RFU CAMK2N1 (11719241_x_at) / Fold change /veh CAMK2N1 (11719241_x_at) / RFU C5orf56 (11738088_a_at) / Fold change /veh C5orf56 (11738088_a_at) / RFU OLFML3 (11715873_a_at) / Fold change /veh OLFML3 (11715873_a_at) / RFU LOC100653217 /// NTM (11731650_a_at) / Fold change /veh LOC100653217 /// NTM (11731650_a_at) / RFU MAPK11 (11762145_a_at) / Fold change /veh MAPK11 (11762145_a_at) / RFU FIZ1 (11724087_x_at) / Fold change /veh FIZ1 (11724087_x_at) / RFU OASL (11726364_x_at) / Fold change /veh OASL (11726364_x_at) / RFU SOX15 (11748057_x_at) / Fold change /veh SOX15 (11748057_x_at) / RFU CD79A (11719716_a_at) / Fold change /veh CD79A (11719716_a_at) / RFU HIST1H1D (11736915_at) / Fold change /veh HIST1H1D (11736915_at) / RFU CASKIN2 (11723855_a_at) / Fold change /veh CASKIN2 (11723855_a_at) / RFU LOC730098 (11760151_x_at) / Fold change /veh LOC730098 (11760151_x_at) / RFU OR4N2 (11742367_at) / Fold change /veh OR4N2 (11742367_at) / RFU PRRT2 (11749266_a_at) / Fold change /veh PRRT2 (11749266_a_at) / RFU SNX32 (11753110_a_at) / Fold change /veh SNX32 (11753110_a_at) / RFU CDHR5 (11726645_a_at) / Fold change /veh CDHR5 (11726645_a_at) / RFU RCAN1 (11760418_a_at) / Fold change /veh RCAN1 (11760418_a_at) / RFU FAM167A (11723789_a_at) / Fold change /veh FAM167A (11723789_a_at) / RFU FAM26E (11764081_at) / Fold change /veh FAM26E (11764081_at) / RFU ISYNA1 (11749810_s_at) / Fold change /veh ISYNA1 (11749810_s_at) / RFU ACY1 (11761880_at) / Fold change /veh ACY1 (11761880_at) / RFU 11764098_at / Fold change /veh 11764098_at / RFU SAMD14 (11745864_x_at) / Fold change /veh SAMD14 (11745864_x_at) / RFU NPB (11741838_a_at) / Fold change /veh NPB (11741838_a_at) / RFU TMPRSS6 (11731388_a_at) / Fold change /veh TMPRSS6 (11731388_a_at) / RFU KRTAP10-2 (11738614_at) / Fold change /veh KRTAP10-2 (11738614_at) / RFU ARHGAP8 /// PRR5-ARHGAP8 (11727945_x_at) / Fold change /veh ARHGAP8 /// PRR5-ARHGAP8 (11727945_x_at) / RFU KRTAP5-7 /// NADSYN1 (11734609_at) / Fold change /veh KRTAP5-7 /// NADSYN1 (11734609_at) / RFU RASL12 (11751679_a_at) / Fold change /veh RASL12 (11751679_a_at) / RFU CDKN2B (11736163_a_at) / Fold change /veh CDKN2B (11736163_a_at) / RFU PRF1 (11729649_at) / Fold change /veh PRF1 (11729649_at) / RFU, ZNF638 /// ZNF638-IT1 / Fold change vs veh, ZNF638 /// ZNF638-IT1 / RFU, PANK3 / Fold change vs veh, PANK3 / RFU, SH3YL1 / Fold change vs veh, SH3YL1 / RFU, ZEB2 / Fold change vs veh, ZEB2 / RFU, NRIP1 / Fold change vs veh, NRIP1 / RFU, PTTG1IP / Fold change vs veh, PTTG1IP / RFU, CAPN2 / Fold change vs veh, CAPN2 / RFU, MED14 / Fold change vs veh, MED14 / RFU, SNORA58 / Fold change vs veh, SNORA58 / RFU, C1orf63 / Fold change vs veh, C1orf63 / RFU, LRRFIP1 / Fold change vs veh, LRRFIP1 / RFU, NDUFAF7 / Fold change vs veh, NDUFAF7 / RFU, SLC12A2 / Fold change vs veh, SLC12A2 / RFU, IBTK / Fold change vs veh, IBTK / RFU, ESF1 / Fold change vs veh, ESF1 / Fold change vs veh, TMEM50B / RFU, TAOK1 / Fold change vs veh, TAOK1 / RFU, ACBD3 / Fold change vs veh, ACBD3 / RFU, TMA16 / Fold change vs veh, TMA16 / RFU, RWDD3 / Fold change vs veh, RWDD3 / RFU, BCAT1 / Fold change vs veh, BCAT1 / RFU, EDEM3 / Fold change vs veh, EDEM3 / RFU, TMEM33 / Fold change vs veh, TMEM33 / RFU, WDR75 / Fold change vs veh, WDR75 / RFU, AHCTF1 / Fold change vs veh, AHCTF1 / RFU, TFRC / Fold change vs veh, TFRC / RFU, ZDHHC17 / Fold change vs veh, ZDHHC17 / RFU, NOM1 / Fold change vs veh, NOM1 / RFU, ARL8B / Fold change vs veh, ARL8B / RFU, ZBTB11 / Fold change vs veh, ZBTB11 / RFU, TAMM41 / Fold change vs veh, TAMM41 / RFU, KIAA1704 /// LOC100996395 / Fold change vs veh, KIAA1704 /// LOC100996395 / RFU, ING1 / Fold change vs veh, ING1 / RFU, TRMT61B / Fold change vs veh, TRMT61B / RFU, FUBP3 / Fold change vs veh, FUBP3 / RFU, TP53 / Fold change vs veh, TP53 / RFU, TNKS2 / Fold change vs veh, TNKS2 / RFU, ZFP14 / Fold change vs veh, ZFP14 / RFU, ACTR2 / Fold change vs veh, ACTR2 / RFU, PPP3R1 / Fold change vs veh, PPP3R1 / RFU, PIK3R1 / Fold change vs veh, PIK3R1 / RFU, HNRNPA1 / Fold change vs veh, HNRNPA1 / RFU, RNF170 / Fold change vs veh, RNF170 / RFU, ZNF28 / Fold change vs veh, ZNF28 / RFU, RNGTT / Fold change vs veh, RNGTT / RFU, OGT / Fold change vs veh, OGT / RFU, BRD1 / Fold change vs veh, BRD1 / RFU, MARS / Fold change vs veh, MARS / RFU, ZNF655 / Fold change vs veh, ZNF655 / RFU, FAHD1 / Fold change vs veh, FAHD1 / RFU, BDP1 / Fold change vs veh, BDP1 / RFU, LRRCC1 / Fold change vs veh, LRRCC1 / RFU, ARID1A / Fold change vs veh, ARID1A / RFU, ZNF146 / Fold change vs veh, ZNF146 / RFU, ZNF330 / Fold change vs veh, ZNF330 / RFU, GPN3 / Fold change vs veh, GPN3 / RFU, C9orf123 / Fold change vs veh, C9orf123 / RFU, N4BP2L2 / Fold change vs veh, N4BP2L2 / RFU, ARFIP1 / Fold change vs veh, ARFIP1 / RFU, FAM179B / Fold change vs veh, FAM179B / RFU, BCL10 / Fold change vs veh, BCL10 / RFU, UHRF1BP1L / Fold change vs veh, UHRF1BP1L / RFU, BET1 / Fold change vs veh, BET1 / RFU, CNOT2 / Fold change vs veh, CNOT2 / RFU, ZNF268 / Fold change vs veh, ZNF268 / Fold change vs veh, ZNF507 / RFU, DGCR2 / Fold change vs veh, DGCR2 / RFU, WDSUB1 / Fold change vs veh, WDSUB1 / Fold change vs veh, HSP90B1 /// MIR3652 / RFU, ADSS / Fold change vs veh, ADSS / RFU, GK / Fold change vs veh, GK / RFU, ZNF148 / Fold change vs veh, ZNF148 / RFU, TAF9 / Fold change vs veh, TAF9 / RFU, SLC1A5 / Fold change vs veh, SLC1A5 / RFU, SLMO2 / Fold change vs veh, SLMO2 / RFU, ABCC4 / Fold change vs veh, ABCC4 / RFU, LOC101060439 /// RAP1B / Fold change vs veh, LOC101060439 /// RAP1B / RFU, RFX7 / Fold change vs veh, RFX7 / RFU, GTPBP10 / Fold change vs veh, GTPBP10 / RFU, CNEP1R1 / Fold change vs veh, CNEP1R1 / RFU, BIVM-ERCC5 /// ERCC5 / Fold change vs veh, BIVM-ERCC5 /// ERCC5 / RFU, ILF3 / Fold change vs veh, ILF3 / RFU 11762660_at / Fold change /veh 11762660_at / RFU VCAN (11757783_s_at) / Fold change /veh VCAN (11757783_s_at) / RFU DDX43 (11728927_at) / Fold change /veh DDX43 (11728927_at) / RFU KRT8 (11758188_x_at) / Fold change /veh KRT8 (11758188_x_at) / RFU NKD1 (11759106_at) / Fold change /veh NKD1 (11759106_at) / RFU SRD5A1 (11742802_a_at) / Fold change /veh SRD5A1 (11742802_a_at) / RFU TPSAB1 /// TPSB2 (11721975_s_at) / Fold change /veh TPSAB1 /// TPSB2 (11721975_s_at) / RFU GSTM3 (11746129_a_at) / Fold change /veh GSTM3 (11746129_a_at) / RFU IL23R (11737362_x_at) / Fold change /veh IL23R (11737362_x_at) / RFU TMEM51 (11727254_a_at) / Fold change /veh TMEM51 (11727254_a_at) / RFU PIWIL2 (11732686_x_at) / Fold change /veh PIWIL2 (11732686_x_at) / RFU ORM1 (11744905_x_at) / Fold change /veh ORM1 (11744905_x_at) / RFU CCDC152 (11743942_at) / Fold change /veh CCDC152 (11743942_at) / RFU ECM1 (11717891_a_at) / Fold change /veh ECM1 (11717891_a_at) / RFU IL23R (11748794_a_at) / Fold change /veh IL23R (11748794_a_at) / RFU TNFAIP8L3 (11732012_x_at) / Fold change /veh TNFAIP8L3 (11732012_x_at) / RFU MBOAT4 (11741988_at) / Fold change /veh MBOAT4 (11741988_at) / RFU 11764193_at / Fold change /veh 11764193_at / RFU TMEM53 (11763286_at) / Fold change /veh TMEM53 (11763286_at) / RFU MAGEB2 (11727129_at) / Fold change /veh MAGEB2 (11727129_at) / RFU TMEM200A (11744735_a_at) / Fold change /veh TMEM200A (11744735_a_at) / RFU CCDC152 (11751479_a_at) / Fold change /veh CCDC152 (11751479_a_at) / RFU FAM211A (11726209_a_at) / Fold change /veh FAM211A (11726209_a_at) / RFU RGS16 (11746705_a_at) / Fold change /veh RGS16 (11746705_a_at) / RFU VCAN (11755009_s_at) / Fold change /veh VCAN (11755009_s_at) / RFU RHOB (11743442_s_at) / Fold change /veh RHOB (11743442_s_at) / RFU RGS16 (11720943_a_at) / Fold change /veh RGS16 (11720943_a_at) / RFU RGS16 (11720944_at) / Fold change /veh RGS16 (11720944_at) / RFU, VPS4B / Fold change vs veh, VPS4B / RFU, CREB1 / Fold change vs veh, CREB1 / RFU, DNAJC13 / Fold change vs veh, DNAJC13 / RFU, GNAQ / Fold change vs veh, GNAQ / RFU, CDK5R1 / Fold change vs veh, CDK5R1 / RFU, ZRANB3 / Fold change vs veh, ZRANB3 / RFU, CUL4A / Fold change vs veh, CUL4A / RFU, CCNY / Fold change vs veh, CCNY / RFU, UFL1 / Fold change vs veh, UFL1 / RFU, COG3 / Fold change vs veh, COG3 / RFU, DIAPH2 / Fold change vs veh, DIAPH2 / RFU, SKA2 / Fold change vs veh, SKA2 / RFU, AFF3 / Fold change vs veh, AFF3 / RFU, LMF1 / Fold change vs veh, LMF1 / RFU, IPO11 / Fold change vs veh, IPO11 / RFU, DFFB / Fold change vs veh, DFFB / RFU, FOXP1 / Fold change vs veh, FOXP1 / RFU, CARD8 / Fold change vs veh, CARD8 / RFU, STRN3 / Fold change vs veh, STRN3 / RFU, ADK / Fold change vs veh, ADK / RFU, RASSF2 / Fold change vs veh, RASSF2 / RFU, WIPF1 / Fold change vs veh, WIPF1 / RFU, LARP1B / Fold change vs veh, LARP1B / RFU, RASA1 / Fold change vs veh, RASA1 / RFU, RB1 / Fold change vs veh, RB1 / RFU, PPFIA1 / Fold change vs veh, PPFIA1 / RFU, MAT2A / Fold change vs veh, MAT2A / RFU, CCT5 / Fold change vs veh, CCT5 / RFU, WDR92 / Fold change vs veh, WDR92 / RFU, CUX1 / Fold change vs veh, CUX1 / RFU, TTC7A / Fold change vs veh, TTC7A / RFU, TMEM135 / Fold change vs veh, TMEM135 / RFU, DEPTOR / Fold change vs veh, DEPTOR / RFU, CPM / Fold change vs veh, CPM / RFU, DNAJB6 / Fold change vs veh, DNAJB6 / RFU, CACNA2D3 / Fold change vs veh, CACNA2D3 / RFU, DTX4 / Fold change vs veh, DTX4 / RFU, TFCP2 / Fold change vs veh, TFCP2 / RFU, GMCL1 /// GMCL1P1 / Fold change vs veh, GMCL1 /// GMCL1P1 / RFU, AEBP2 / Fold change vs veh, AEBP2 / RFU, SNHG1 /// SNORD22 /// SNORD25 /// SNORD26 /// SNORD27 /// SNORD28 /// SNORD29 /// SNORD31 / Fold change vs veh, SNHG1 /// SNORD22 /// SNORD25 /// SNORD26 /// SNORD27 /// SNORD28 /// SNORD29 /// SNORD31 / Fold change (Aza/veh), C12orf56 (ProbeSet 11735607_a_at) / Fold change (ACY-1035/veh), C12orf56 (ProbeSet 11735607_a_at) / Fold change (Aza/veh), FGFR1OP (ProbeSet 11751329_s_at) / Fold change (ACY-1035/veh), FGFR1OP (ProbeSet 11751329_s_at) / Fold change (Aza/veh), VPS36 (ProbeSet 11739960_a_at) / Fold change (ACY-1035/veh), VPS36 (ProbeSet 11739960_a_at) / RFU SYPL1 (11715823_x_at) / Fold change /veh SYPL1 (11715823_x_at) / RFU IGFBP7 (11715501_s_at) / Fold change /veh IGFBP7 (11715501_s_at) / RFU REEP3 (11722064_at) / Fold change /veh REEP3 (11722064_at) / RFU IGLL1 (11728026_x_at) / Fold change /veh IGLL1 (11728026_x_at): dose or concentration left out as unconfirmed
# Details: MV-4-11 cells, 48 hours
compound,measurement,value
Nc1ccc(-c2cccs2)cc1NC(=O)c1ccc2c(c1)cc(C1CC1)n2CCN1CCOCC1 [ACY-1035],Fold change /veh TUBB4B (11761932_at),1.03
